Experimental data published in ChEMBL document CHEMBL1781871, “Discovery and SAR of novel mGluR5 non-competitive antagonists not based on an MPEP chemotype” (Bioorg Med Chem Lett, 2009).
Values belong to the compound of their own block, whether it stands above or below them.

Key:
[1] = target: T1, Metabotropic glutamate receptor 5 (Homo sapiens, UniProt P41594); experiment: Non-competitive antagonist activity at mGluR5 at 30 uM relative to glutamate; type: functional; parameters: scale not given: the % may be the effect or the level left
Target sequence in this assay (P41594 21-1212 limits assumed): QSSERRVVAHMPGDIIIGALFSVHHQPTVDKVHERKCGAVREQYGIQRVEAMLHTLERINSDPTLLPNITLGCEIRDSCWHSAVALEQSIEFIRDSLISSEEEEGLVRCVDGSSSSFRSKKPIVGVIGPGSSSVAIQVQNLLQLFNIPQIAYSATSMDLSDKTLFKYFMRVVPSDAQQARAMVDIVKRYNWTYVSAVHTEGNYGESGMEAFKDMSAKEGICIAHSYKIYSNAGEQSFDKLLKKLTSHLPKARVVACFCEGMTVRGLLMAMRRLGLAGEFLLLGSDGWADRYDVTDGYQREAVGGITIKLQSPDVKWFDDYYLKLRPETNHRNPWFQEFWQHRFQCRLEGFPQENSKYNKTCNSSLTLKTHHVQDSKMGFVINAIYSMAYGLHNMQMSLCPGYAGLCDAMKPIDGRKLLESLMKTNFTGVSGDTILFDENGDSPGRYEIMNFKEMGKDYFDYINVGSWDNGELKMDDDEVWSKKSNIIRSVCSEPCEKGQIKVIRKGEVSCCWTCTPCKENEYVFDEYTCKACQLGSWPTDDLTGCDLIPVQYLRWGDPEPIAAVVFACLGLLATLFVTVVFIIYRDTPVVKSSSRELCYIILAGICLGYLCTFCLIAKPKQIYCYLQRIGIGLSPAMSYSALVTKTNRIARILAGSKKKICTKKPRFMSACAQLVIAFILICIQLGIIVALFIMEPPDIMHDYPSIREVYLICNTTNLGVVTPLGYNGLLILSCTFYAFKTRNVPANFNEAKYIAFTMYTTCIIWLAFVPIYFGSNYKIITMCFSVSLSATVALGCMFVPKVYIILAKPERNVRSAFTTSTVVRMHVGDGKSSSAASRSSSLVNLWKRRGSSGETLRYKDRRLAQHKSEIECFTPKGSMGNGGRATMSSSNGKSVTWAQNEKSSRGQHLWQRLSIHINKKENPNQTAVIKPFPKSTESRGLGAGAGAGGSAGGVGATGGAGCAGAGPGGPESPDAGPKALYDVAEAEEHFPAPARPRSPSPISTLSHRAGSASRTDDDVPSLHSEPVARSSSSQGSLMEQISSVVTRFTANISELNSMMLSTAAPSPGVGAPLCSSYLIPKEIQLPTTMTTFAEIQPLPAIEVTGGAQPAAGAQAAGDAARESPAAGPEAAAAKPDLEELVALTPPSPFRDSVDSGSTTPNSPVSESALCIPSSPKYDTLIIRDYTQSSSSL

[2] = target: Metabotropic glutamate receptor 1 (Homo sapiens, UniProt Q13255); experiment: Inhibition of mGluR1
[3] = target: Metabotropic glutamate receptor 2 (Homo sapiens, UniProt Q14416); experiment: Inhibition of mGluR2
[4] = target: Metabotropic glutamate receptor 3 (Homo sapiens, UniProt Q14832); experiment: Inhibition of mGluR3
[5] = target: Metabotropic glutamate receptor 4 (Homo sapiens, UniProt Q14833); experiment: Inhibition of mGluR4
[6] = target: Metabotropic glutamate receptor 7 (Homo sapiens, UniProt Q14831); experiment: Inhibition of mGluR7
[7] = target: Metabotropic glutamate receptor 8 (Homo sapiens, UniProt O00222); experiment: Inhibition of mGluR8
[8] = target: T1, Metabotropic glutamate receptor 5; experiment: Non-competitive antagonist activity at mGluR5; type: functional
Target sequence in this assay (P41594 whole entry): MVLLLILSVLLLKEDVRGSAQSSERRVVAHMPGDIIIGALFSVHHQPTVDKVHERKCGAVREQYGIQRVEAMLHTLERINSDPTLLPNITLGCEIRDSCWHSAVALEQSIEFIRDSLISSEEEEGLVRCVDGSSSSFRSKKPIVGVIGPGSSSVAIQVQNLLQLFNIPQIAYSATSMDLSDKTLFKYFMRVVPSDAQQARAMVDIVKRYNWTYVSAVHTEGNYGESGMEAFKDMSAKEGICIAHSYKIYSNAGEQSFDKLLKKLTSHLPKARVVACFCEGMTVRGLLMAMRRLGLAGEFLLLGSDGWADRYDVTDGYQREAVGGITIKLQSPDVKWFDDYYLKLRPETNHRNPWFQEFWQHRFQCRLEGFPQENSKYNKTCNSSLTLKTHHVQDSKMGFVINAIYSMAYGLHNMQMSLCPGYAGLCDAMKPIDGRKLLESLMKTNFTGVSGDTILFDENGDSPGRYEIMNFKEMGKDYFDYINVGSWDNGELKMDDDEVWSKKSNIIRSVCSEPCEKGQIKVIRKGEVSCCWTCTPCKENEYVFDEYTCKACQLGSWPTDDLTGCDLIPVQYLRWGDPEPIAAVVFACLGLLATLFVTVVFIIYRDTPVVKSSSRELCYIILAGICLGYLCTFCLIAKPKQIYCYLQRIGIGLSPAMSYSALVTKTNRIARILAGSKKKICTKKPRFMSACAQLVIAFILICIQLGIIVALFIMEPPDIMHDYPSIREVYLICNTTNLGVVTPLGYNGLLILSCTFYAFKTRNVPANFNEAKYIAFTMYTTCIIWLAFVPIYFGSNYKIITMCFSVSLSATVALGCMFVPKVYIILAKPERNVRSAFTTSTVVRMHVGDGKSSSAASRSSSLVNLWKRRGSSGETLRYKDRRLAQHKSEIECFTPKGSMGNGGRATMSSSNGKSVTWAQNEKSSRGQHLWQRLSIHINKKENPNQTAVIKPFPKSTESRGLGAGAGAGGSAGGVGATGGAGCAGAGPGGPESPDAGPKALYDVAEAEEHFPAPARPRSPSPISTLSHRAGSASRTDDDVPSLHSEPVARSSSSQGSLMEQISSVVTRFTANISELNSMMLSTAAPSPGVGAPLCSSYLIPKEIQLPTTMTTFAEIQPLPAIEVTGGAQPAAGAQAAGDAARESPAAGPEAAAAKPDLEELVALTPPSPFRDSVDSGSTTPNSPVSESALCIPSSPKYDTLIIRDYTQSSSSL

[9] = target: T1, Metabotropic glutamate receptor 5; experiment: Positive allosteric modulation of mGluR5
Target sequence in this assay (P41594 whole entry): as above

[10] = target: T1, Metabotropic glutamate receptor 5; experiment: Positive allosteric modulation of mGluR5 at 30 uM relative to glutamate
Target sequence in this assay (P41594 21-1212 limits assumed): as the sequence (P41594 21-1212 limits assumed) above

Sequence of Metabotropic glutamate receptor 3 (Q14832 whole entry): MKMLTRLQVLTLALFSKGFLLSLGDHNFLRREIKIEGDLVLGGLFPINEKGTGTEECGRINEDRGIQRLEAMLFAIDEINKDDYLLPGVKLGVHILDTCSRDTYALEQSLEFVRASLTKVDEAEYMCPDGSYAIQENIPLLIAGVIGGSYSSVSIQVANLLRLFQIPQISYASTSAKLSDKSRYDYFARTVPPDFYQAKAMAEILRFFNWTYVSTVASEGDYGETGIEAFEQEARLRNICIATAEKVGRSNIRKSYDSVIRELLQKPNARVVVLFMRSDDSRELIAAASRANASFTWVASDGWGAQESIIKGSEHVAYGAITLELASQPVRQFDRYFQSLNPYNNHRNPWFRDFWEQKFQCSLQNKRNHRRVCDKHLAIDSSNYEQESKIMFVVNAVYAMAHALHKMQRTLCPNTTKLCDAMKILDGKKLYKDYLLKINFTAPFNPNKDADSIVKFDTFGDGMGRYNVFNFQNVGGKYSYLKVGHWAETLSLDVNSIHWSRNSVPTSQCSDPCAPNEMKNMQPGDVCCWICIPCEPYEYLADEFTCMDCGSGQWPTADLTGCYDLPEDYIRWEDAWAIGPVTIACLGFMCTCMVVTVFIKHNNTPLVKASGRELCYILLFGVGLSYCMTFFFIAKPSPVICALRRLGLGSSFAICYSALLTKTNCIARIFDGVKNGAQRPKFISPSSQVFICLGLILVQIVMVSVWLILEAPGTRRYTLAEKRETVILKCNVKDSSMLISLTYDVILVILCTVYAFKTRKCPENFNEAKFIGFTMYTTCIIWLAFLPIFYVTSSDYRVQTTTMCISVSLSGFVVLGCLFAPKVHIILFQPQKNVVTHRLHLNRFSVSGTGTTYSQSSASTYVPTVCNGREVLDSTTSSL
Sequence of Metabotropic glutamate receptor 4 (Q14833 whole entry): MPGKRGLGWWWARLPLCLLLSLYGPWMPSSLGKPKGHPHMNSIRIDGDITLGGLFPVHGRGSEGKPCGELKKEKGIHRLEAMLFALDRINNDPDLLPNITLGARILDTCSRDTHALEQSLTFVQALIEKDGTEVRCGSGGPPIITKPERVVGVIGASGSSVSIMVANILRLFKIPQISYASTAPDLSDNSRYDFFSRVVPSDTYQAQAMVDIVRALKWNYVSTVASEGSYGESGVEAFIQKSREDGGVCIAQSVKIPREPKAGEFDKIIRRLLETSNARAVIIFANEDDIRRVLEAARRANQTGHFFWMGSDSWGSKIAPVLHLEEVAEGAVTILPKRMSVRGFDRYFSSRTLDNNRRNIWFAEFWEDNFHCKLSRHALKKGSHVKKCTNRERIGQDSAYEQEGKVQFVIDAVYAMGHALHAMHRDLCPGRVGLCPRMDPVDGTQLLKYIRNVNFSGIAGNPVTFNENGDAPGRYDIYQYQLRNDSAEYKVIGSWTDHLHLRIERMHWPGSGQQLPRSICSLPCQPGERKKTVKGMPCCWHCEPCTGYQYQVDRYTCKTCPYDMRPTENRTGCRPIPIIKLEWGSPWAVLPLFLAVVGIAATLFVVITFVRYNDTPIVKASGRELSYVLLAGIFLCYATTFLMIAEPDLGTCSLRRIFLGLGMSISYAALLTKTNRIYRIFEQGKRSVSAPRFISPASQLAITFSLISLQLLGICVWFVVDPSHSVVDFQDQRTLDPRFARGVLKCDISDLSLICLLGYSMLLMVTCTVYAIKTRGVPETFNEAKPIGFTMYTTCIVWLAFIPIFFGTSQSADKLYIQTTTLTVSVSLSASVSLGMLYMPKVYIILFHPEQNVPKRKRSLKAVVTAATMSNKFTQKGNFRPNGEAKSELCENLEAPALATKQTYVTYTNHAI

- IC50 [8]: > 10 µM
- Activity [1]: 56.2%
Compound: Cc1ccc(C(=O)N2CCCC3(CCCCC3)C2)cc1

- EC50 [9]: 7.6 µM
- Activity [10]: 73.5%
Compound: Nc1c(C(=O)c2ccc(F)cc2)oc2ncc(Br)cc12

- IC50 [8]: > 10 µM
- Activity [1]: 36%
Compound: Cc1cc(C)c2c(N)c(C(=O)c3ccccc3)oc2n1

- IC50 [8]: > 10 µM
- Activity [1]: 30.2%
Compound: O=C(N1CCN(c2cccnc2)CC1)C12CC3CC(CC(C3)C1)C2

- EC50 [9]: 6.5 µM
- Activity [10]: 38.3%
Compound: COCc1c(Cl)c(C)nc2oc(C(=O)c3ccc(F)cc3)c(N)c12

- Activity [10]: 32.9%
Compound: Cc1cc(O)nc2oc(C(=O)c3ccc(F)cc3)c(N)c12

- Activity [1]: 3.68%
Compound: N#Cc1ccccc1N1CCN(C(=O)C23CC4CC(CC(C4)C2)C3)CC1

- IC50 [8]: > 30 µM
Compound: O=C(N1CCN(c2ccncc2)CC1)C12CC3CC(CC(C3)C1)C2

- IC50 [8]: 5.02 µM
- Activity [1]: 2.39%
Compound: O=C(c1cnc2ccccc2n1)N1CCCC2(CCCCC2)C1

- EC50 [9]: 6.1 µM
Compound: Cc1cc(=O)[nH]c2oc(C(=O)c3ccc(F)cc3)c(N)c12

- IC50 [8]: > 10 µM
- Activity [1]: 52%
Compound: COc1ccccc1N1CCN(C(=O)C23CC4CC(CC(C4)C2)C3)CC1

- IC50 [8]: 0.84 µM
- Activity [1]: 1.58%
Compound: Cc1cc(C(F)(F)F)c2c(N)c(C(=O)c3ccc(F)cc3)oc2n1

- IC50 [8]: 0.99 µM
- Activity [1]: 3.75%
Compound: O=C(N1CCN(c2ccccn2)CC1)C12CC3CC(CC(C3)C1)C2

- IC50 [8]: > 30 µM
Compound: O=C(c1cccnc1)N1CCCC2(CCCCC2)C1

- IC50 [8]: 9.3 µM
- Activity [1]: 19.4%
Compound: Cc1cc(C)c2c(N)c(C(=O)c3ccc(F)cc3F)oc2n1

Second part, the compound before the results:

Compound: O=C(C1CCC1)N1CCCC2(CCCCC2)C1
- Activity [1]: 1.12%
- IC50 [2]: > 30 µM
- IC50 [3]: > 30 µM
- IC50 [4]: > 30 µM
- IC50 [5]: > 30 µM
- IC50 [6]: > 30 µM
- IC50 [7]: > 30 µM

Compound: O=C(C1CCCCC1)N1CCCC2(CCCCC2)C1
- IC50 [8]: > 30 µM

Compound: O=C(C1CC1)N1CCCC2(CCCCC2)C1
- IC50 [8]: > 10 µM
- Activity [1]: 40.6%

Compound: O=C(CSc1ccccc1)N1CCCC2(CCCCC2)C1
- Activity [1]: 4.23%

Compound: O=C(C1CCCC1)N1CCCC2(CCCCC2)C1
- IC50 [8]: > 10 µM
- Activity [1]: 26.1%

Compound: O=C(N1CCN(c2nccs2)CC1)C12CC3CC(CC(C3)C1)C2
- Activity [1]: 1.16%
- IC50 [3]: > 30 µM
- IC50 [4]: > 30 µM
- IC50 [5]: > 30 µM
- IC50 [6]: > 30 µM
- IC50 [7]: > 30 µM

Compound: O=C(c1ccco1)N1CCCC2(CCCCC2)C1
- IC50 [8]: 1.54 µM
- Activity [1]: 2.64%

Compound: O=C(c1cccs1)N1CCCC2(CCCCC2)C1
- IC50 [8]: 1.18 µM
- Activity [1]: 2.69%

Compound: O=C(Cc1cccs1)N1CCCC2(CCCCC2)C1
- IC50 [8]: > 10 µM
- Activity [1]: 52.1%

Compound: O=C(N1CCN(c2ccccc2Cl)CC1)C12CC3CC(CC(C3)C1)C2
- IC50 [8]: > 30 µM
